Data on two molecules can be found in patent US10053434B2, “Histone deacetylase inhibitors and compositions and methods of use thereof” (CHDI Foundation, Inc., priority 2015, dated 2018).

In test [1] the test system is Cellular Class IIa HDAC activity. Briefly: Inhibition of cellular Class IIa HDAC activity; Cell (Lys-TFA) substrate, Jurkat E6-1 cells. The test is classed as cell-based. As to conditions: Boc-Lys(TFA)-AMC substrate. The source says:
Example 29: Analysis of Inhibition of Cellular Class IIa HDAC Activity with Class IIa Histone Deacetylase (HDAC) Inhibitors; Cell (Lys-TFA) Substrate
(§1) The potency of Class IIa Histone Deacetylase (HDAC) inhibitors was quantified by measuring the cellular histone deacetylase enzymatic activity using the fluorogenic substrate, Boc-Lys(TFA)-AMC. After penetration in Jurkat E6-1 cells, the substrate was deacetylated to Boc-Lys-AMC. After cell lysis and cleavage by trypsin, the fluorophore AMC was released from the deacetylated substrate only. The fluorescence of the sample was directly related to the histone deacetylase activity in the sample.
Jurkat E6.1 Cell Culture and Plating.
(§2) Jurkat E6.1 cells were cultured according to standard cell culture protocols in Jurkat E6.1 Growth Media (RPMI without phenol red, 10% FBS, 10 mM HEPES, and 1 mM Sodium Pyruvate). Jurkat E6.1 cells were counted using a Coulter Counter and resuspended in Jurkat E6.1 growth media at a concentration of 75,000 cells/35 μL. 35 μL or 75,000 cells was seeded into Greiner microtitre assay plates. The plates were then incubated at 37° C. and 5% CO2 while other assay components were being prepared.
(§3) Serially Dilute HDAC Inhibitor Compounds.
(§4) Serial dilutions of the HDAC inhibitors and control reference compound (1-(5-(3-((4-(1,3,4-oxadiazol-2-yl)phenoxy)methyl)-1,2,4-oxadiazol-5-yl)thiophen-2-yl)-2,2,2-trifluoroethanone) were made by first resuspending the lyophilized compound to a final concentration of 10 mM in 100% DMSO. Stocks of 70 μL aliquots of the 10 mM compound in DMSO were prepared and stored at −20° C. From one stock aliquot of each tested compound and the reference compound, a 16-point serial dilution was prepared according to Table 1 using a 125 μL 16-channel Matrix multi-channel pipette.
(§5) 2 μL (200×) of each diluted solution and each control (full activity: 100% DMSO alone or full inhibition 1 mM) was stamped into V-bottom polypropylene 384-well compound plates using either the Bravo, Janus, or 12.5 μL 16-channel Matrix multi-channel pipette. Each well with the 200× compound solution was diluted 1:20 by the addition of 38 μL Jurkat assay buffer+DMSO (9.5% DMSO, RPMI without phenol red, 0.09% FBS, 9 mM Hepes, and 0.9 mM Sodium Pyruvate equilibrated to r.t.)
Prepare 5× (500 μM) Boc-Lys(TFA)-AMC Substrate.
(§6) 5× (500 μM) substrate was prepared just prior to the addition to the assay. The 5× substrate was prepared by diluting a 100 mM Boc-Lys(TFA)-AMC in DMSO solution 1:200 by adding it drop-wise to Jurkat assay medium (RPMI without phenol red, 0.1% FBS, 10 mM Hepes, and 1 mM Sodium Pyruvate equilibrated to 37° C.) while vortexing at slow speed to prevent precipitation.
(§7) 10 mL of 3× lysis buffer was prepared with 8.8 mL of 3× stock lysis buffer (50 mM Tris-HCl, pH 8.0, 137 mM NaCl, 2.7 mM KCl, 1 mM MgCl2, 1% Nonidet P40 Substitute equilibrated to r.t.) and 1.2 mL of 3 mg/mL Trypsin equilibrated to r.t.
(§8) 5 μL of each solution of 1:20 diluted compound from above was transferred to the Greiner microtitre assay plates with 75,000 cells/well using the Bravo. Cells were then incubated for 2 hours at 37° C. and 5% CO2. The assay was then started by adding 10 μL of 5× (500 μM) substrate to the assay plate using either the Bravo or 16-channel Matrix multi-channel pipette. The cells were then incubated for 3 hours at 37° C. and 5% CO2. Next, 25 μL of 3× lysis buffer was added to each well using either the 125 μL 16 channel pipette or the Bravo. The assay plate was then incubated overnight (15-16 hours) at 37° C. and 5% CO2. The following day, the plates were shaken on an orbital shaker for 1 minute at 900 rpm. Finally the top read fluorescence (Excitation: 355 nm, Emission: 460 nm) was measured using PerkinElmer EnVision.

The test system of test [2] is Cellular Class I HDAC activity. The experiment in a line: Inhibition of cellular Class I HDAC activity; Cell (Lys-Ac) substrate, Jurkat E6-1 cells. The test is classed as cell-based. Particulars: Boc-Lys(Ac)-AMC substrate.
Source text: as §1, §2, §4, §5, §6, §7, §8
Example 30: Analysis of Inhibition of Cellular Class I HDAC Activity with Class IIa Histone Deacetylase (HDAC) Inhibitors; Cell (Lys-Ac) Substrate
The Class I HDAC activity of Class IIa Histone Deacetylase (HDAC) inhibitors was quantified by measuring the cellular histone deacetylase enzymatic activity using the fluorogenic substrate, Boc-Lys(Ac)-AMC. This was performed according to the procedure in Example 29, using Boc-Lys(Ac)-AMC substrate in place of Boc-Lys(TFA)-AMC.

Test [3] concerns the target human catalytic domain HDAC4 protein (amino acids 648-1032) (Homo sapiens (Human), UniProt P56524). The experiment in a line: HDAC4 catalytic domain enzymatic activity, fluorogenic substrate Boc-Lys(TFA)-AMC. As to conditions: read-out: HDAC4 Biochemical IC50.
Source text: Example 25: Analysis of Inhibition of HDAC4 with Class IIa Histone Deacetylase (HDAC) Inhibitors
The potency of Class IIa Histone Deacetylase (HDAC) inhibitors was quantified by measuring the Histone Deacetylase 4 (HDAC4) catalytic domain enzymatic activity using the fluorogenic substrate, Boc-Lys(TFA)-AMC. The substrate was deacetylated to Boc-Lys-AMC by HDAC4. […] The fluorescence of the sample was directly related to the histone deacetylase activity in the sample.
as §3
as §4, with “dimethyl sulfoxide (DMSO).” for “DMSO.”, “60” for “70”, “pipette (Matrix Technologies Ltd).” for “pipette.”
2 μL (200×) of each diluted solution and each control (full activity: 100% DMSO alone or full inhibition 1 mM) was stamped into V-bottomed polypropylene 384-well compound plates using either the Bravo (384-well head from Agilent) or 12.5 μL 16-channel Matrix multi-channel pipette (Matrix Technologies Ltd). Each well with the 200× compound solution was diluted 1:20 by the addition of 38 μL assay buffer+DMSO (10.5% DMSO, 45 mM Tris-HCl, 123 mM NaCl, 2.4 mM KCl, and 0.9 mM MgCl2 at pH 8.0 and equilibrated to r.t.).
Prepare HDAC4 Catalytic Domain Enzyme (0.2 μg/mL).
The HDAC4 catalytic domain enzyme was human catalytic domain HDAC4 protein (amino acids 648-1032) with a C-terminal 6× histidine tag, produced by BioFocus. A working solution of enzyme was prepared from a […] stock aliquot of HDAC4 catalytic domain (thawed on ice) diluted to 0.2 μg/mL with assay buffer (50 mM Tris-HCl, 137 mM NaCl, 2.7 mM KCl, and 1 mM MgCl2 at pH 8 and equilibrated to r.t.) just prior to the addition of the enzyme to the assay.
Prepare 5× (50 μM) Boc-Lys(TFA)-AMC Substrate.
5× (50 μM) substrate was prepared just prior to the addition to the assay. A 1 mM substrate stock was made by diluting a 100 mM Boc-Lys(TFA)-AMC in DMSO solution 1:100 by adding it drop-wise to assay buffer (equilibrated to r.t.) while vortexing at slow speed to prevent precipitation. The 5× substrate was prepared by diluting the 1 mM substrate solution 1:20 by adding it drop-wise to assay buffer (equilibrated to r.t.) while vortexing at slow speed to prevent precipitation.
Prepare 3× (30 μM) Developer/Stop Solution.
3× (30 μM) Developer/Stop Solution was prepared just prior to addition to the plate by diluting a stock solution of 10 mM reference compound 1:333 in 25 mg/mL trypsin (PAA Laboratories Ltd.) equilibrated to r.t.
5 μL of each solution of 1:20 diluted compound from above was transferred to a clear bottomed, black, 384-well assay plate using the Bravo or the Janus (384-well MDT head from Perkin Elmer). Using a 16-channel Matrix multi-channel pipette, 35 μL of the working solution of HDAC4 catalytic domain enzyme (0.2 μg/mL in assay buffer) was transferred to the assay plate. The assay was then started by adding 10 μL of 5× (50 μM) substrate to the assay plates using either the Bravo, Janus or 16-channel Matrix multi-channel pipette. The assay plate was then shaken for two minutes on an orbital shaker at 900 rpm (rotations per minute). Next the plate was incubated for 15 minutes at 37° C. The reaction was stopped by adding 25 μL of 3× (30 μM) developer/stop solution to the assay plates using either the Bravo, Janus or a 16-channel Matrix multi-channel pipette. Assay plates were then shaken for 5 minutes on an orbital shaker at 1200 rpm. Next, the assay plates were incubated at 37° C. for 1 hour in a tissue culture incubator. […]

Sequence of human catalytic domain HDAC4 protein (amino acids 648-1032) (P56524 648-1032): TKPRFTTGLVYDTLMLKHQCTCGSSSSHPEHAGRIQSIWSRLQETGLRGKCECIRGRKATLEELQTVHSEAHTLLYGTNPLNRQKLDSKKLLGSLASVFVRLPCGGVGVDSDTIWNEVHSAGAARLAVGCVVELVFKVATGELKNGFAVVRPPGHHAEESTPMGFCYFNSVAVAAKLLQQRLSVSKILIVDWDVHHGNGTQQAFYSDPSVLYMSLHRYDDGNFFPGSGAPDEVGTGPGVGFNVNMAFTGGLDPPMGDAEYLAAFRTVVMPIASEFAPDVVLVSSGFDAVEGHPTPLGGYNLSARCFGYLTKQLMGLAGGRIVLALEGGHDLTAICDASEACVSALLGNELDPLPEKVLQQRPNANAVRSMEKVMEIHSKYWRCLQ

As to `C[C@H](CN1CC2CC2C1)NC(=O)c1ccc(-c2noc(C(F)(F)F)n2)cc1` (stereo partly drawn) [Example 4, N-((2R)-1-(3-Azabicyclo[3.1.0]hexan-3-yl)propan-2-yl)-4-(5-(trifluoromethyl)-1,2,4-oxadiazol-3-yl)benzamide], the half-inhibitory concentration (IC50) turned out to be 51 nM in test [1], 6900 nM in test [2] and 8 nM in test [3].
For `C[C@H](CN1Cc2ccccc2C1)NC(=O)c1ccc(-c2noc(C(F)(F)F)n2)cc1` [Example 3, (R)—N-(1-(Isoindolin-2-yl)propan-2-yl)-4-(5-(trifluoromethyl)-1,2,4-oxadiazol-3-yl)benzamide] the same measures were 140 nM, 4900 nM and 39 nM.

The term IC50 denotes the concentration at which inhibition is half-maximal.
